PubChem BioAssay (NCI)
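Dose response: 5 concentrations. Exposure: 48 h. Format: 96-well plates. Endpoint: linear interpolation; highest concentration if not reached. At the GI50, growth is halved. TGI: concentration producing complete growth inhibition.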

Legend:
Experiment in all cases: DTP human tumour cell line panel, 48 h
786-0 renal = system: 786-0 renal
A498 renal = system: A498 renal
A549 NSCLC = system: A549 NSCLC
ACHN renal = system: ACHN renal
BT-549 breast = system: BT-549 breast
CAKI-1 renal = system: CAKI-1 renal
CCRF-CEM leukemia = system: CCRF-CEM leukemia
COLO 205 colon = system: COLO 205 colon
DU-145 prostate = system: DU-145 prostate
EKVX NSCLC = system: EKVX NSCLC
HCC-2998 colon = system: HCC-2998 colon
HCT-116 colon = system: HCT-116 colon
HCT-15 colon = system: HCT-15 colon
HL-60(TB) leukemia = system: HL-60(TB) leukemia
HOP-62 NSCLC = system: HOP-62 NSCLC
HOP-92 NSCLC = system: HOP-92 NSCLC
HS 578T breast = system: HS 578T breast
HT29 colon = system: HT29 colon
IGROV1 ovarian = system: IGROV1 ovarian
K-562 leukemia = system: K-562 leukemia
KM12 colon = system: KM12 colon
LOX IMVI melanoma = system: LOX IMVI melanoma
M14 melanoma = system: M14 melanoma
MALME-3M melanoma = system: MALME-3M melanoma
MCF7 breast = system: MCF7 breast
MDA-MB-231 breast = system: MDA-MB-231 breast
MDA-MB-435 = system: MDA-MB-435
MOLT-4 leukemia = system: MOLT-4 leukemia
NCI-H226 lung = system: NCI-H226 lung
NCI-H23 lung = system: NCI-H23 lung
NCI-H460 lung = system: NCI-H460 lung
NCI-H522 lung = system: NCI-H522 lung
NCI/ADR-RES ovarian = system: NCI/ADR-RES ovarian
OVCAR-3 ovarian = system: OVCAR-3 ovarian
OVCAR-4 ovarian = system: OVCAR-4 ovarian
OVCAR-5 ovarian = system: OVCAR-5 ovarian
OVCAR-8 ovarian = system: OVCAR-8 ovarian
PC-3 prostate = system: PC-3 prostate
RPMI-8226 leukemia = system: RPMI-8226 leukemia
RXF 393 renal = system: RXF 393 renal
SF-268 CNS = system: SF-268 CNS
SF-295 CNS = system: SF-295 CNS
SF-539 CNS = system: SF-539 CNS
SK-MEL-2 melanoma = system: SK-MEL-2 melanoma
SK-MEL-28 melanoma = system: SK-MEL-28 melanoma
SK-MEL-5 melanoma = system: SK-MEL-5 melanoma
SK-OV-3 ovarian = system: SK-OV-3 ovarian
SN12C renal = system: SN12C renal
SNB-19 CNS = system: SNB-19 CNS
SNB-75 CNS = system: SNB-75 CNS
SR leukemia = system: SR leukemia
SW-620 colon = system: SW-620 colon
T-47D breast = system: T-47D breast
TK-10 renal = system: TK-10 renal
U251 CNS = system: U251 CNS
UACC-257 melanoma = system: UACC-257 melanoma
UACC-62 melanoma = system: UACC-62 melanoma
UO-31 renal = system: UO-31 renal

Cc1nc2cc(-c3nn(C(C)C)c4ncnc(N)c34)ccc2o1
GI50 (786-0 renal): 13.6 nM
TGI (786-0 renal): 287 nM
GI50 (A498 renal): 1.85 nM
TGI (A498 renal): 6.89 nM
GI50 (A549 NSCLC): 12.7 nM
TGI (A549 NSCLC): 310 nM
GI50 (ACHN renal): 10.2 nM
TGI (ACHN renal): 1220 nM
GI50 (BT-549 breast): 3.51 nM
TGI (BT-549 breast): 61 nM
GI50 (CAKI-1 renal): 4.9 nM
TGI (CAKI-1 renal): 84.4 nM
GI50 (CCRF-CEM leukemia): 27 nM
TGI (CCRF-CEM leukemia): > 10000 nM
GI50 (COLO 205 colon): 12.1 nM
TGI (COLO 205 colon): 870 nM
GI50 (DU-145 prostate): 19.7 nM
TGI (DU-145 prostate): > 10000 nM
GI50 (EKVX NSCLC): 14.1 nM
TGI (EKVX NSCLC): 286 nM
GI50 (HCC-2998 colon): 12.2 nM
TGI (HCC-2998 colon): > 10000 nM
GI50 (HCT-116 colon): 35 nM
TGI (HCT-116 colon): > 10000 nM
GI50 (HCT-15 colon): 12.6 nM
TGI (HCT-15 colon): > 6080 nM
GI50 (HL-60(TB) leukemia): 68 nM
TGI (HL-60(TB) leukemia): > 10000 nM
GI50 (HOP-62 NSCLC): 21.8 nM
TGI (HOP-62 NSCLC): 415 nM
GI50 (HOP-92 NSCLC): 1.96 nM
TGI (HOP-92 NSCLC): 34.4 nM
GI50 (HS 578T breast): 5.18 nM
TGI (HS 578T breast): 47.3 nM
GI50 (HT29 colon): 20.8 nM
TGI (HT29 colon): > 5340 nM
GI50 (IGROV1 ovarian): 3.41 nM
TGI (IGROV1 ovarian): 55.9 nM
GI50 (K-562 leukemia): 28.8 nM
TGI (K-562 leukemia): > 10000 nM
GI50 (KM12 colon): 17.2 nM
TGI (KM12 colon): 4980 nM
GI50 (LOX IMVI melanoma): 14.1 nM
TGI (LOX IMVI melanoma): 660 nM
GI50 (M14 melanoma): 9.73 nM
TGI (M14 melanoma): 1210 nM
GI50 (MALME-3M melanoma): 3.47 nM
TGI (MALME-3M melanoma): 78.7 nM
GI50 (MCF7 breast): 3.79 nM
TGI (MCF7 breast): > 10000 nM
GI50 (MDA-MB-231 breast): 11.6 nM
TGI (MDA-MB-231 breast): > 3930 nM
GI50 (MDA-MB-435): 8.54 nM
TGI (MDA-MB-435): 98.2 nM
GI50 (MOLT-4 leukemia): 20.6 nM
TGI (MOLT-4 leukemia): > 3500 nM
GI50 (NCI-H226 lung): 5.05 nM
TGI (NCI-H226 lung): 191 nM
GI50 (NCI-H23 lung): 41.5 nM
TGI (NCI-H23 lung): > 7000 nM
GI50 (NCI-H460 lung): 5.89 nM
TGI (NCI-H460 lung): > 10000 nM
GI50 (NCI-H522 lung): 3.64 nM
TGI (NCI-H522 lung): 787 nM
GI50 (NCI/ADR-RES ovarian): 26.7 nM
TGI (NCI/ADR-RES ovarian): 537 nM
GI50 (OVCAR-3 ovarian): 12.5 nM
TGI (OVCAR-3 ovarian): 627 nM
GI50 (OVCAR-4 ovarian): 6.46 nM
TGI (OVCAR-4 ovarian): 97 nM
GI50 (OVCAR-5 ovarian): 14.9 nM
TGI (OVCAR-5 ovarian): 2180 nM
GI50 (OVCAR-8 ovarian): 19.8 nM
TGI (OVCAR-8 ovarian): 431 nM
GI50 (PC-3 prostate): 6.5 nM
TGI (PC-3 prostate): 598 nM
GI50 (RPMI-8226 leukemia): 3.42 nM
TGI (RPMI-8226 leukemia): 385 nM
GI50 (RXF 393 renal): 6.62 nM
TGI (RXF 393 renal): 104 nM
GI50 (SF-268 CNS): 14.3 nM
TGI (SF-268 CNS): 1840 nM
GI50 (SF-295 CNS): 6.99 nM
TGI (SF-295 CNS): 78.1 nM
GI50 (SF-539 CNS): 22.7 nM
TGI (SF-539 CNS): 169 nM
GI50 (SK-MEL-2 melanoma): 21.3 nM
TGI (SK-MEL-2 melanoma): 137 nM
GI50 (SK-MEL-28 melanoma): 6.62 nM
TGI (SK-MEL-28 melanoma): 125 nM
GI50 (SK-MEL-5 melanoma): 15.8 nM
TGI (SK-MEL-5 melanoma): 103 nM
GI50 (SK-OV-3 ovarian): 4.65 nM
TGI (SK-OV-3 ovarian): 44.6 nM
GI50 (SN12C renal): 9.83 nM
TGI (SN12C renal): > 10000 nM
GI50 (SNB-19 CNS): 41.2 nM
TGI (SNB-19 CNS): > 10000 nM
GI50 (SNB-75 CNS): 3.09 nM
TGI (SNB-75 CNS): 39.1 nM
GI50 (SR leukemia): 16.8 nM
TGI (SR leukemia): 8070 nM
GI50 (SW-620 colon): 36.6 nM
TGI (SW-620 colon): > 10000 nM
GI50 (T-47D breast): 1.34 nM
TGI (T-47D breast): 15.8 nM
GI50 (TK-10 renal): 6.25 nM
TGI (TK-10 renal): 166 nM
GI50 (U251 CNS): 19.4 nM
TGI (U251 CNS): 2350 nM
GI50 (UACC-257 melanoma): 11.1 nM
TGI (UACC-257 melanoma): 112 nM
GI50 (UACC-62 melanoma): 3.93 nM
TGI (UACC-62 melanoma): 44 nM
GI50 (UO-31 renal): 2.11 nM
TGI (UO-31 renal): 61.1 nM
